Laboratory results taken from paper PMC10454728, “A Comparative Study on the Lysosomal Cation Channel TMEM175 Using Automated Whole-Cell Patch-Clamp, Lysosomal Patch-Clamp, and Solid Supported Membrane-Based Electrophysiology: Functional Characterization and High-Throughput Screening Assay Development” (International Journal of Molecular Sciences, 2023).
pEC50: −log10 of the molar value. Several values for one entry are separate records, joined by “and”; a condition that tells them apart may be missing. Equal entries are not always repeated. Entries after “also recorded” stand apart in the source; their conditions may differ.

How the values were obtained:
[1] = target: T1, TMEM175 (Homo sapiens, UniProt Q9BSA9); assay: SSME K+ flux compound assay on purified lysosomes overexpressing TMEM175 (SURFE2R 96SE); format: biochemical; settings: for Relative current / maximum potentiation, SSME: Imax of dose-response curve, baseline 100%, (50 µM)
T1 sequence (Q9BSA9 1-504): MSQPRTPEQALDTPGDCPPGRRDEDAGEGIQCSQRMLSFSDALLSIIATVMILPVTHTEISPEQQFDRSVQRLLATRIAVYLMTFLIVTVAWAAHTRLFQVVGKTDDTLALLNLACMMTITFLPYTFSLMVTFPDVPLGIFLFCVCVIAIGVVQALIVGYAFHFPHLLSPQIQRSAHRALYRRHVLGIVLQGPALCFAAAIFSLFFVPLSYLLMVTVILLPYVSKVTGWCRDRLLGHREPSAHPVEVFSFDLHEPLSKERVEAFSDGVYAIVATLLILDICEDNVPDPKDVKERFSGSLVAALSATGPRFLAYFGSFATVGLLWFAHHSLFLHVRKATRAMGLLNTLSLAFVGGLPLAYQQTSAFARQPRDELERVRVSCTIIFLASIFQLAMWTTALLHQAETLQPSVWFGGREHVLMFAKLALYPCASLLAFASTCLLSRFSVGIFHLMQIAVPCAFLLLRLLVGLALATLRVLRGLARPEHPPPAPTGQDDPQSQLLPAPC
Method: In brief, compound measurements using SSME are performed in a three-step process (Figure 6B). First, TMEM175-mediated K^+ translocation is measured through 50 mM K^+ concentration jumps. This represents the baseline current of TMEM175 activity (I0). […] Third, the activation through a 50 mM K^+ concentration jump is repeated, this time in the presence of the compound to record the modulated TMEM175 current (I). In this process, each individual sensor of the 96-well sensor plate is only exposed to a single concentration of the compound. The relative current amplitude I/I0 is used as a measure of the compound effect and averaged across sensors.
We applied 50 mM K^+ concentration jumps in the absence and presence of different compound concentrations to derive information about compound effects on K^+ flux through TMEM175; (B) Time dependence of recorded peak current amplitudes for the complete workflow, which involves multiple sequential measurements. […] The recording of each sensor well starts with the application of a control measurement, rinsing non-activating solution across the sensor (baseline recording). Afterwards, we performed three solution exchange measurements from 50 mM NaCl to 50 mM KCl to measure K^+ flux through TMEM175 (baseline TMEM175 current, I0). We then rinsed the sensor with non-activating solution containing the compound at a given concentration, followed by incubation of 15 min to equilibrate the sensors with the compound. Subsequently, the solution exchange from 50 mM NaCl to 50 mM KCl is repeated twice, but in the presence of the given compound concentration to determine the modulated peak current I. Afterwards, we repeated the measurement in the absence of the compound three times (wash-out) to recover the non-modulated TMEM175 current. We subtracted the average artifact current recorded with control lysosomes from I and I0 (Figure 1K), without considering off-target effects of the tested compound. […] Success rates were determined based on the QC criteria provided in the Methods section. […] We determined average values, AVGpos and AVGneg, and standard deviations, SDpos and SDneg, of the recorded peak currents. […] Error bars represent the SEM obtained from automated data analysis using DataControl96, based on variations of the currents obtained with the TMEM175 sample. Each compound concentration was recorded with at least N = 8 sensors. […] Imin was always fixed to 0 for inhibitors or 1 for enhancers, as indicated. […] A total of 50 µL of 0.1 mM octadecanethiol in isopropanol was added to each sensor well, following incubation for 30 min at room temperature to form an alkanethiol monolayer on the sensor surface. Subsequently, the sensors were washed twice with isopropanol and three times with ddH2O, before dry-tapping on a tissue. The subsequent process of sensor coating with lipid and lysosomes was carried out manually for the SURFE^2R N1 and automated with the SURFE^2R 96SE serving as a pipetting robot. In both cases, 1.5 µL of 7.5 mg/mL 1,2-diphytanoyl-sn-glycero-3-phosphocholine (DPhPC) in n-decane was added to the center of the circular gold surface, followed by the addition of 50 µL of non-activating solution to form the SSM. The composition of the non-activating solution was adjusted for each experiment (Table 2). […] SSM-coated 96-well sensor plates were stored at −80 °C before use.

[2] = target: T1, TMEM175; assay: Whole-cell automated patch-clamp (APC) Cs+ flux assay, SyncroPatch 384i, HEK293 overexpressing TMEM175; format: cell-based
Method: To validate the APC assay, we compared currents between TMEM175-overexpressing cells and control HEK293 UT cells. […] In our compound application protocol, which was used to evaluate compound potencies, we consistently administered tool compounds to assess their impact on TMEM175 activity (Figure 7C).
The voltage protocol generation and data collection were performed with PatchControl384 v1.9.0 and analyzed with DataControl384 v2.2.0. A multi-hole, medium resistance chip with four patch-clamp holes per well was used for recording.
DMSO remained constant at 0.2% and BSA at 0.05% in the external solution throughout the assay, if not stated otherwise.
The voltage protocol applied for the investigation of the tool compounds (Figure 7) consisted of a 500 ms ramp from −80 mV to +80 mV, followed by a 400 ms step from −80 mV to +80 mV before returning to the holding potential of 0 mV (Figure 7B). The maximum outward current amplitude obtained at +80 mV from the ramp section was used for analysis. To investigate the blinded test compounds (Figure 8), an alternative voltage protocol was applied. […] The maximum outward current amplitude obtained at 0 mV from the voltage step section was used for analysis. In both voltage protocols, voltage sweeps were repeated every 10 s and currents sampled at 10 kHz.
The application protocol for agonists consisted of two additions of extracellular physiological solution for a minimum of 3 min, followed by the external application of the test compound for a minimum of 2 min (Figure 7C).
Currents recorded after compound addition were normalized to the baseline current before compound addition, averaged, and plotted over the compound concentration to determine the EC50 and IC50 values.

[3] = system: TMEM175; settings: 100 µM, whole-cell configuration, +80 mV; ref [6]; cited from earlier work
[4] = target: T1, TMEM175; assay: SSME H+ flux assay (pH jumps) on TMEM175 lysosomes (SURFE2R N1); format: biochemical; settings: corresponding to ~pH 5; read-out: EC50 of H+ influx current vs Δc(H+)
Source text: To further investigate the capability of TMEM175 to translocate protons using SSME, we performed H^+ concentration or pH jumps using the SURFE^2R N1. The non-activating solution was set to pH 7.6, defining both the lysosomal and cytosolic pH before the start of the experiment. By exchanging the non-activating for the activating solution, we acidified the cytosolic solution and stimulated H^+ influx through TMEM175 (Figure 5A).
However, the application of pH jumps lead to significant artifact currents of positive magnitude, as observed with the control lysosomes (Figure 5C). These artifacts are a result of protons interacting with the lipid membranes and/or unknown H^+ leak pathways through the lysosomal membrane. To conclude pure TMEM175-related H^+ currents, we subtracted the artifact currents from the currents recorded with the TMEM175 sample. When plotting ΔpH against the artifact-corrected average TMEM175 net H^+ current, we obtain a close-to-linear correlation (Figure 5D).
For comparison with the I/c curve reported for K^+ (Figure 3E), we calculated the difference in H^+ concentration across the lysosomal membrane Δc = cH^out − cH^in, which correlates linearly with the passive H^+ flux J = PH+Δc according to Fick’s law.
We used H^+ concentration or pH jumps to measure H^+ flux through TMEM175. Non-activating solution was set to pH 7.6, while activating solution contained different pH values between pH 7.4 and pH 4.6; (B) Representative current traces induced by pH jumps on lysosomes overexpressing TMEM175. All current traces were recorded with the same sensor, starting from the lowest ΔpH. […] The remaining current mostly reflects the background (artifact) current after full block of TMEM175; (C) Representative current traces from the same experiment on control lysosomes. […] This represents the artifact current also underlying the currents recorded with the TMEM175 sample; (D) SEM and average, artifact-corrected, normalized peak currents from N = 4 sensors, reflecting the H^+ flux through TMEM175, solely driven by the pH gradient. […]

| Potency in SSME relative to APC (more potent in SSME) ([1]; EC50 APC / EC50 SSME) [fold] | Relative current / maximum potentiation, SSME [1] | Relative current / maximum potentiation, SSME ([1]; listed as arachidonic acid) [%] | pEC50 ([1]; tool enhancers, K+ flux, 50 mM K+ jump, pH 7.6, 0 mV, artifact-corrected, read-out: Half saturation (EC50), SSME) | Relative current, APC ([2]; enhancer, (30 µM), relative to baseline current (100%)) | EC50 and maximum potentiation in the absence of BSA, APC ([2]; no BSA vs 0.05% BSA) | Maximum potentiation (increase in TMEM175 activity), APC ([2]; standard assay with 0.05% BSA) [%] | pEC50 ([2]; tool compounds, Cs+ flux, outward current at +80 mV, 0.05% BSA, read-out: Half saturation (EC50), APC) | pEC50 [4] | SMILES | Increase in K+ flux through TMEM175, literature [3] [fold] |
| --- | --- | --- | --- | --- | --- | --- | --- | --- | --- | --- |
| 40 | 168 ± 5% (50 µM) | 168 ± 5 | 5.64 and 5.65 | 137 ± 6% (30 µM) | did not affect; also recorded: unaltered | 34 | 4.08 |  | CCCCC/C=C\C/C=C\C/C=C\C/C=C\CCCC(=O)O [Arachidonic Acid, arachidonic acid] | 14 |
|  |  |  |  |  |  |  |  | 5.02 | [H+] [H^+] |  |
